“And” between values parts separate entries of the source, which are not always exact repeats. Equal entries are not always repeated. Toxic doses and inconclusive results are not listed. No stated cut-off is given here; in the data, active means T/C of 150% or more; inactive means T/C below 125%.
Tested on: L1210 leukemia ip in BDF1 mice, survival T/C
Assay: NCI In Vivo Anticancer Drug Screen. Data for tumor model L1210 Leukemia (intraperitoneal) in B6D2F1 (BDF1) mice
Details: endpoint: mean survival time, higher = longer survival
Method in brief: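 Tumor was transplanted into mice, which were then dosed with test compound or vehicle alone. Survival was recorded for each group, and the treated figure was expressed relative to the control figure.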

[1] = dose: 25.0 mg/kg/injection, schedule: Q01DX009 (ip), vehicle: saline
[2] = dose: 50.0 mg/kg/injection, schedule: Q01DX009 (ip), vehicle: saline
[3] = dose: 100.0 mg/kg/injection, schedule: Q01DX009 (ip), vehicle: saline
[4] = dose: 200.0 mg/kg/injection, schedule: Q01DX009 (ip), vehicle: saline
[5] = dose: 100.0 mg/kg/injection, schedule: Q01DX009 (ip), vehicle: Klucel (hydroxypropylcellulose) (HPC)
[6] = dose: 100.0 mg/kg/injection, schedule: Q04DX003 (ip), vehicle: Klucel (hydroxypropylcellulose) (HPC)
[7] = dose: 200.0 mg/kg/injection, schedule: Q01DX009 (ip), vehicle: Klucel (hydroxypropylcellulose) (HPC)
[8] = dose: 200.0 mg/kg/injection, schedule: Q04DX003 (ip), vehicle: Klucel (hydroxypropylcellulose) (HPC)
[9] = dose: 400.0 mg/kg/injection, schedule: Q01DX009 (ip), vehicle: Klucel (hydroxypropylcellulose) (HPC)
[10] = dose: 400.0 mg/kg/injection, schedule: Q04DX003 (ip), vehicle: Klucel (hydroxypropylcellulose) (HPC)
[11] = dose: 100.0 mg/kg/injection, schedule: Q01DX001 (ip), vehicle: saline
[12] = dose: 100.0 mg/kg/injection, schedule: Q04DX003 (ip), vehicle: saline
[13] = dose: 50.0 mg/kg/injection, schedule: Q01DX001 (ip), vehicle: saline
[14] = dose: 100.0 mg/kg/injection, schedule: Q04DX003 (ip), vehicle: saline with Tween-80
[15] = dose: 200.0 mg/kg/injection, schedule: Q04DX003 (ip), vehicle: saline with Tween-80
[16] = dose: 200.0 mg/kg/injection, schedule: Q01DX001 (ip), vehicle: saline
[17] = dose: 400.0 mg/kg/injection, schedule: Q01DX001 (ip), vehicle: saline
[18] = dose: 100.0 mg/kg/injection, schedule: Q01DX001 (ip), vehicle: Klucel (hydroxypropylcellulose) (HPC)
[19] = dose: 200.0 mg/kg/injection, schedule: Q01DX001 (ip), vehicle: Klucel (hydroxypropylcellulose) (HPC)

Measured: T/C

COCc1ncc2cnccn12
inactive: [1] 90 % of control | [2] 103 % of control | [3] 98 % of control and 103 % of control and 91 % of control | [4] 93 % of control

CC(C)(C)NC(C1=CC(C)(C)c2ccccc2C1=O)c1ccccc1 (configuration not stated)
inactive: [5] 98 % of control | [6] 110 % of control | [7] 104 % of control | [8] 102 % of control | [9] 101 % of control | [10] 102 % of control

C=NC
inactive: [11] 105 % of control | [12] 103 % of control

Cc1csc2nc(-c3ccccc3)nc(Cl)c12
inactive: dose: 100.0 mg/kg/injection, schedule: Q04DX003 (ip), vehicle: saline sonified 97 % of control | dose: 200.0 mg/kg/injection, schedule: Q04DX003 (ip), vehicle: saline sonified 93 % of control | dose: 400.0 mg/kg/injection, schedule: Q04DX003 (ip), vehicle: saline sonified 95 % of control

C=CCNC(=S)NCc1cccc2ccccc12
inactive: [5] 98 % of control | [7] 111 % of control | [9] 88 % of control

COC(=O)c1cc(S(=O)(=O)c2cc(C)c(O)c(C(=O)OC)c2)cc(C)c1O
inactive: dose: 100.0 mg/kg/injection, schedule: Q04DX002 (ip), vehicle: carboxymethylcellulose (CMC) 92 % of control | dose: 200.0 mg/kg/injection, schedule: Q04DX002 (ip), vehicle: carboxymethylcellulose (CMC) 95 % of control | dose: 400.0 mg/kg/injection, schedule: Q04DX002 (ip), vehicle: carboxymethylcellulose (CMC) 95 % of control

CC(N)(CCCC(=O)O)C(=O)O (configuration not stated)
inactive: dose: 176.0 mg/kg/injection, schedule: Q01DX001 (ip), vehicle: carboxymethylcellulose (CMC) 95 % of control | dose: 264.0 mg/kg/injection, schedule: Q01DX001 (ip), vehicle: carboxymethylcellulose (CMC) 100 % of control | dose: 400.0 mg/kg/injection, schedule: Q01DX001 (ip), vehicle: carboxymethylcellulose (CMC) 95 % of control | dose: 600.0 mg/kg/injection, schedule: Q01DX001 (ip), vehicle: carboxymethylcellulose (CMC) 98 % of control

CC(=O)Oc1cc(OC(C)=O)c2ccccc2c1OC(C)=O
inactive: dose: 1.56 mg/kg/injection, schedule: Q04DX003 (ip), vehicle: saline 102 % of control | dose: 3.12 mg/kg/injection, schedule: Q04DX003 (ip), vehicle: saline 106 % of control | dose: 6.25 mg/kg/injection, schedule: Q04DX003 (ip), vehicle: saline 102 % of control | dose: 12.5 mg/kg/injection, schedule: Q01DX001 (ip), vehicle: saline 103 % of control | dose: 25.0 mg/kg/injection, schedule: Q01DX001 (ip), vehicle: saline 97 % of control | [13] 100 % of control

CCC(C)C(CN)(CCCCN1CCOCC1)c1cccc2ccccc12 (configuration not stated)
inactive: [14] 98 % of control | [15] 93 % of control

CCCCCCCCCCCCCCCCCOC(=O)CCCCCCCCCCCCCCCCC
inactive: [14] 103 % of control | [15] 92 % of control | dose: 400.0 mg/kg/injection, schedule: Q04DX003 (ip), vehicle: saline with Tween-80 89 % of control

COc1cccc(C2N(Cc3ccc(OC)cc3OC)CCCN2Cc2ccc(OC)cc2OC)c1
inactive: [13] 89 % of control | [11] 96 % of control | [16] 91 % of control | [17] 96 % of control

CCN(CC)CC(=O)NCC(CCN1CCCCC1)(CC(C)C)c1cccc2ccccc12 (configuration not stated)
inactive: [1] 102 % of control | [2] 105 % of control | [3] 114 % of control

COc1ccc2c(c1)CCC1C2CCC2C(O)CCC(=O)C21 (configuration not stated)
inactive: dose: 50.0 mg/kg/injection, schedule: Q01DX001 (ip), vehicle: Klucel (hydroxypropylcellulose) (HPC) 102 % of control | [18] 102 % of control | [19] 98 % of control

Cc1cccc(C)c1NC(=O)Oc1ccc(F)cc1Cl
inactive: [5] 110 % of control | [7] 97 % of control

COc1cc(N(CCl)CCl)ccc1NC(=O)c1ccccc1
inactive: [6] 111 % of control | [8] 105 % of control | [10] 111 % of control

CC1(C)N=C(N)N=C(N)N1c1ccc(CCCCc2ccc(S(=O)(=O)F)cc2)cc1
inactive: [2] 113 % of control | [3] 106 % of control

Cc1c(Cl)cccc1NC(=O)c1c(Cl)c(Cl)c(Cl)c(Cl)c1C(=O)O
inactive: [5] 102 % of control | [7] 103 % of control

COc1cc(C)oc(=O)c1
inactive: [18] 110 % of control | [11] 98 % of control | [3] 93 % of control and 101 % of control | [12] 97 % of control | [19] 104 % of control | [16] 98 % of control | [4] 93 % of control and 104 % of control | dose: 200.0 mg/kg/injection, schedule: Q04DX003 (ip), vehicle: saline 93 % of control | dose: 400.0 mg/kg/injection, schedule: Q01DX001 (ip), vehicle: Klucel (hydroxypropylcellulose) (HPC) 106 % of control | [17] 102 % of control | dose: 400.0 mg/kg/injection, schedule: Q01DX009 (ip), vehicle: saline with Tween-80 108 % of control | dose: 400.0 mg/kg/injection, schedule: Q01DX009 (ip), vehicle: saline 93 % of control | dose: 400.0 mg/kg/injection, schedule: Q04DX003 (ip), vehicle: saline 92 % of control

COc1ccc(C(O)c2nnc(-c3ccccc3)nn2)cc1 (configuration not stated)
inactive: dose: 100.0 mg/kg/injection, schedule: Q01DX001 (ip), vehicle: gum acacia 90 % of control | dose: 200.0 mg/kg/injection, schedule: Q01DX001 (ip), vehicle: gum acacia 120 % of control | dose: 400.0 mg/kg/injection, schedule: Q01DX001 (ip), vehicle: gum acacia 107 % of control

CCCCNC(=O)Nc1cccc2ccccc12
inactive: [5] 96 % of control | [7] 96 % of control | [9] 97 % of control

CCCCNc1nc2ccccc2[nH]1
inactive: dose: 5.0 mg/kg/injection, schedule: Q01DX009 (ip), vehicle: acetone 98 % of control | dose: 10.0 mg/kg/injection, schedule: Q01DX001 (ip), vehicle: saline 103 % of control | dose: 10.0 mg/kg/injection, schedule: Q01DX009 (ip), vehicle: acetone 98 % of control | dose: 20.0 mg/kg/injection, schedule: Q01DX001 (ip), vehicle: saline 101 % of control | dose: 20.0 mg/kg/injection, schedule: Q01DX009 (ip), vehicle: acetone 110 % of control | dose: 40.0 mg/kg/injection, schedule: Q01DX001 (ip), vehicle: saline 101 % of control

COc1ccc(OC(C)=O)c2c1C(=O)OC(C)C2NC(=O)C(C)NC(C)=O (configuration not stated)
inactive: dose: 12.5 mg/kg/injection, schedule: Q04DX002 (ip), vehicle: saline with Tween-80 103 % of control | dose: 25.0 mg/kg/injection, schedule: Q04DX002 (ip), vehicle: saline with Tween-80 107 % of control | dose: 50.0 mg/kg/injection, schedule: Q04DX002 (ip), vehicle: saline with Tween-80 100 % of control

CCN(Cc1ccccc1)C(=S)NC1CCCCC1
inactive: dose: 100.0 mg/kg/injection, schedule: Q04DX002 (ip), vehicle: saline 96 % of control | dose: 200.0 mg/kg/injection, schedule: Q04DX002 (ip), vehicle: saline 96 % of control | dose: 400.0 mg/kg/injection, schedule: Q04DX002 (ip), vehicle: saline 100 % of control

CCOC(=O)/C(C(=S)NC(=O)c1ccc(Br)cc1)=C(/C)N
inactive: dose: 100.0 mg/kg/injection, schedule: Q04DX003 (ip), vehicle: carboxymethylcellulose (CMC) 95 % of control | dose: 200.0 mg/kg/injection, schedule: Q04DX003 (ip), vehicle: carboxymethylcellulose (CMC) 90 % of control | dose: 400.0 mg/kg/injection, schedule: Q04DX003 (ip), vehicle: carboxymethylcellulose (CMC) 98 % of control

COc1ccc(OC)c(NC(=O)Nc2ccc([N+](=O)[O-])cc2OC)c1
inactive: [5] 96 % of control | [7] 93 % of control | [9] 94 % of control

— PubChem BioAssay AID248 (DTP/NCI, 2004)
